The values that follow are results of earlier work, collected in PMC10905719, “Accelerating Antimicrobial Peptide Discovery for WHO Priority Pathogens through Predictive and Interpretable Machine Learning Models” (ACS Omega, 2024).

For data set [1], the system named is Erythrocyte. The text has this: page 8: 2 VGALAGFLYWHFLRKGTKM NewAMP_S Hm-AMP10 VGK S. aureus ST 88 248.00 NewAMP_S hHK-18 TGKASQFFGLM-NH S. aureus ATCC 151.63 2 25923 NewAMP_S AH-18 LKKWTGKASQFFGLM-NH S. aureus ATCC 222.71 2 25923 NewAMP_S AH-28 LKKWTLKASQFFGLM-NH S. aureus ATCC 229.89 2 25923 NewAMP_S AH-38 LKKWLKKWTGKASQFFGLM- S. aureus ATCC 9.18 NH2 25923 NewAMP_S AH-48 LKKWLKKWTLKASQFFGLM- S. aureus ATCC 4.70 NH2 25923 Sub-set Name Sequence Erythrocyte MHC(µg/mL) (% hemolysis) NewAMP_HE HJH-18 KLLKHKLLVTLA Erythrocyte 382.72a NewAMP_HE HJH-28 KLLKHKLLVTLR Erythrocyte 382.72a NewAMP_HE HJH-38 KLLKRKLLVTLR Erythrocyte 382 ...

For data set [2], the system named is P. aeruginosa ATCC 10148. The note with it: NewAMP_P, ref SI 3. The source says: page 6: NH2 8 LKKWLKKWTPKASQFFGLM- NewAMP_E AH-5 NH E. coli ATCC 25922 4.67 2 3 […] P. aeruginosa ATCC NewAMP_P RaCa-2 KC 10148 128 3 P. aeruginosa ATCC NewAMP_P RaCa-4 FLTFPGMTFGKLLGK 10148 No inhibition 3 […] P. aeruginosa ATCC NewAMP_P RaCa-6 GKQ 10148 No inhibition 3 […] P. aeruginosa ATCC NewAMP_P RaCa-7 SVGN 10148 No inhibition 3 P. aeruginosa ATCC NewAMP_P RaCa-8 FPAIICKVSKNC 10148 No inhibition 3 P. aeruginosa ATCC NewAMP_P RaCa-9 FYFPVSRKFGGK 10148 No inhibition 3 […] P. aeruginosa ATCC NewAMP_P RaCa-10 LEII 1 ...

Data set [3] concerns E. coli ATCC 25922. The note with it: NewAMP_E, ref SI 3. The source says:
page 5: Table S3 NewAMP database1-9 Sub-set Name Sequence Bacterial Strain MIC (µg/mL) NewAMP_E HJH-58 KKLLRLLKVLLR E. coli ATCC 25922 1.5 3 […] NewAMP_E RaCa-2 KC E. coli ATCC 25922 4-16 3 […] NewAMP_E RaCa-6 GKQ E. coli ATCC 25922 No inhibition NewAMP_E RaCa-83 FPAIICKVSKNC E. coli ATCC 25922 No inhibition 3 […] NewAMP_E RaCa-10 LEII E. coli ATCC 25922 No inhibition 5 […] NewAMP_E Hydr_2 KLL-NH E. coli ATCC 25922 512 2 5 […] NewAMP_E Hydr_3 KAG-NH E. coli ATCC 25922 512 2 NewAMP_E Hydr_45 FLPLIGRVFSGIL ... || page 6: NH2 8 LKKWLKKWTPKASQFFGLM- NewAMP_E AH-5 NH E. coli ATCC 25922 4.67 2 3 […] P. aeruginosa ATCC NewAMP_P RaCa-2 KC 10148 128 3 P. aeruginosa ATCC NewAMP_P RaCa-4 FLTFPGMTFGKLLGK 10148 No inhibition 3 […] P. aeruginosa ATCC NewAMP_P RaCa-6 GKQ 10148 No inhibition 3 […] P. aeruginosa ATCC NewAMP_P RaCa-7 SVGN 10148 No inhibition 3 P. aeruginosa ATCC NewAMP_P RaCa-8 FPAIICKVSKNC 10148 No inhibition 3 P. aeruginosa ATCC NewAMP_P RaCa-9 FYFPVSRKFGGK 10148 No inhibition 3 […] P. aeruginosa ATCC NewAMP_P RaCa-10 LEII 1 ...

The subject of data set [4] is S. aureus ATCC 6538P. The note with it: NewAMP_S, ref SI 3. The text has this: page 7: 29213 8 S. aureus ATCC NewAMP_S HJH-6 KKLLKKLLRLLKVLLR 29213 0.75 6 GWGAKRWGKRGWKWKRH NewAMP_S GW18 W-COONH S. aureus ATCC 6538 3.12 2 3 […] S. aureus ATCC NewAMP_S RaCa-2 KC 6538P 2-4 3 S. aureus ATCC NewAMP_S RaCa-4 FLTFPGMTFGKLLGK 6538P No inhibition 3 […] S. aureus ATCC NewAMP_S RaCa-6 GKQ 6538P No inhibition 3 […] S. aureus ATCC NewAMP_S RaCa-7 SVGN 6538P No inhibition 3 S. aureus ATCC NewAMP_S RaCa-8 FPAIICKVSKNC 6538P No inhibition 3 S. aureus ATCC NewAMP_S RaCa-9 FYFPVSRKFGGK 6538P No inhibition 3 […] S ...

In the case of “FILYGLIRFGRLLRK [Hm-AMP4, newly published AMP of the NewAMP test set]”, the “% hemolysis at MHC” value in data set [1] was 77%.
As for “FPAIICKVSKNC [RaCa-8, newly published AMP of the NewAMP test set]”, the MIC result in data set [2], in data set [3] and in data set [4] was “No inhibition” throughout.
Consider “SNRDFFKVNIFRLCG [RaCa-11, newly published AMP of the NewAMP test set]”, for which the MIC entry in data set [2] and in data set [4] was “No inhibition” each time.
In the case of “KKLLKKLLRLLKVLLR [HJH-6, newly published AMP of the NewAMP test set]”, the “% hemolysis at MHC” value in data set [1] was 90%.
Turning to “FLTFPGMTFGKLLGK [RaCa-4, newly published AMP of the NewAMP test set]”, the MIC result in data set [2] and in data set [4] was “No inhibition” in each case.
Take “FYFPVSRKFGGK [RaCa-9, newly published AMP of the NewAMP test set]”: the MIC entry in data set [2] and in data set [4] was “No inhibition” each time.
